Experimental data: the METLIN SMRT retention time set (Domingo-Almenara et al. 2019)

Assay: gradient 5% acetonitrile 3 min, to 50% in 2 min, to 85% in 15 min, held 3 min, 100 µL/min
Conditions: column: Zorbax Extend-C18 2.1 x 50 mm; eluents: water / acetonitrile, 0.1% formic acid
Summary of the method: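 In both positive and negative ionization mode, a quadrupole time-of-flight mass spectrometer coupled to HPLC analyzed pure standards run in mixtures of ~100 molecules. The Zorbax Extend-C18 column (2.1 × 50 mm, 1.8 μm) was operated at 100 μL/min with water and acetonitrile, each containing 0.1% formic acid. The dead volume was 40 μL and the dwell volume 900 μL. Retention time came from adduct peaks that were computationally picked and individually inspected by hand.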
For `CC1(C(=O)NCc2ccccc2)Cn2cnc(C(=O)NCc3ccccc3F)c2C(=O)N1C1CC1` (stereo not drawn), the RP-LC retention time was 783 s.
For `CC(C)Cn1ccc2c(cc(C(=O)NCCCN3CCOCC3)n2C)c1=O`, the RP-LC retention time was 594 s.
Work on `CN(C)C(CNC(=O)c1cc(-c2cccs2)on1)c1ccc(F)cc1` (stereo not drawn) yielded an RP-LC retention time of 668 s.
In the case of `Cc1ccccc1-c1nc(-c2ccc(S(=O)(=O)N3CCOCC3)cc2)no1`, the RP-LC retention time is reported as 1170 s.
`COc1ccc(OC)c(S(=O)(=O)N2CCCC3(CC2)CNC(=O)O3)c1` (stereo not drawn) showed an RP-LC retention time of 685 s.
`O=C(Nc1nnc(C2CC(=O)N(c3ccccc3)C2)o1)c1cccc(F)c1` (stereo not drawn) gave an RP-LC retention time of 711 s.
For `O=S(=O)(NC1CCCCC1)c1ccc(-c2cc(C(F)(F)F)on2)o1`, the RP-LC retention time was 1120 s.
Work on `COc1cccc(N2CCN(c3ccnc(SCC(=O)Nc4ccc(F)c(Cl)c4)n3)CC2)c1` yielded an RP-LC retention time of 806 s.
`O=C(Nc1ccc2c(c1)OCO2)C(=O)c1cn(CC(=O)N2CCCCC2)c2ccccc12` gave an RP-LC retention time of 1000 s.
In the case of `O=[N+]([O-])c1cccc(/C=C/c2ccccn2)c1`, the RP-LC retention time is reported as 747 s.
`COc1ccc(-c2nnc(-c3ccc(OC)c(S(=O)(=O)N(C)C)c3)o2)cc1OC` gave an RP-LC retention time of 807 s.
Molecule `c1ccc2c(c1)CC(N1CCN(c3cccc4c3OCCO4)CC1)C2` has an RP-LC retention time of 741 s.
Work on `CCc1ccc(-c2cc(C(F)(F)F)on2)cc1S(=O)(=O)N1CCC(C)CC1` yielded an RP-LC retention time of 1350 s.
`CSc1ccc(-c2noc(Cn3c(=O)n(-c4cccc(C)c4)c(=O)c4sccc43)n2)cc1` gave an RP-LC retention time of 1070 s.
Molecule `NS(=O)(=O)c1ccc(NC(=O)CSc2nnc3ccc4ccccc4n23)cc1` has an RP-LC retention time of 652 s.
Molecule `CCCNC(=O)C1CCCN(c2nc3ncn(CC(=O)Nc4ccc(CC)cc4)c(=O)c3s2)C1` (stereo not drawn) has an RP-LC retention time of 741 s.
Molecule `COC(=O)c1c(NCc2ccc(C)o2)c2cccc(Cl)c2[nH]c1=O` has an RP-LC retention time of 766 s.
With `COc1ccc2[nH]cc(CCN3CC(C(=O)Nc4cc(F)cc(F)c4)CC3=O)c2c1` (stereo not drawn) the RP-LC retention time was 821 s.
In the case of `COc1ccc(OC)c(NC(=O)c2cc3nc(-c4cccs4)cc(C(F)(F)F)n3n2)c1`, the RP-LC retention time is reported as 1200 s.
Work on `CS(=O)(=O)Nc1cccc(C2=NN(S(C)(=O)=O)C(c3cccc([N+](=O)[O-])c3)C2)c1` (stereo not drawn) yielded an RP-LC retention time of 740 s.
In the case of `COc1cccc(NC(=O)NC2CCN(c3ccc(C)c(C)c3)C2=O)c1` (stereo not drawn), the RP-LC retention time is reported as 854 s.
Work on `COC[C@@H]1CN(S(=O)(=O)c2ccc(C#N)cc2)C[C@H]1c1ccncc1` yielded an RP-LC retention time of 746 s.
`Cc1noc(-c2ccnc(-n3cnc(C(=O)NCC(C)C)c3)c2)n1` showed an RP-LC retention time of 773 s.
`O=C(Nc1c(F)cccc1F)N1CCc2nc(-c3ccccc3)ncc2C1` showed an RP-LC retention time of 811 s.
Molecule `CCOC(=O)C1CCN(C(=O)C2c3ccccc3C(=O)N(C)C2c2cccs2)CC1` (stereo not drawn) has an RP-LC retention time of 810 s.
`Cc1nn(CC(=O)NCc2cccnc2)c(=O)c2nc(-c3ccccc3)sc12` showed an RP-LC retention time of 614 s.
In the case of `CCc1ccc(S(=O)(=O)N2CC(F)(F)C[C@H]2CN2CCc3ccccc3C2)cc1`, the RP-LC retention time is reported as 808 s.
`Cc1ccc(S(=O)(=O)N2CCC3(CC2)NCCN=C3NCc2ccccc2Cl)cc1C` showed an RP-LC retention time of 768 s.
For `CN(CCCNC(=O)c1sc2ncccc2c1-n1cccc1)Cc1ccccc1`, the RP-LC retention time was 662 s.
`Cc1ncc2c(n1)C[C@@H]1CC[C@H]2N1C(=O)c1ccccn1` showed an RP-LC retention time of 603 s.
`Cc1ccc(NC(=O)Cn2nc3c(Oc4cccc(F)c4)nccn3c2=O)cc1F` showed an RP-LC retention time of 894 s.
For `CN(CCc1noc(COc2ccccc2F)n1)C(=O)CCc1ccccc1`, the RP-LC retention time was 931 s.
`O=c1n(Cc2ccccc2)nc2ccc(S(=O)(=O)N3CCc4ccccc4C3)cn12` gave an RP-LC retention time of 644 s.
In the case of `CN(C1CCc2nn(CC3CC3)c(=O)n2CC1)S(=O)(=O)c1ccccc1F` (stereo not drawn), the RP-LC retention time is reported as 706 s.
`CC(C)C(=O)N1CCC(N2C[C@H](O)C[C@H]2C(=O)NC2CCCCC2)CC1` showed an RP-LC retention time of 603 s.
In the case of `COc1ccccc1OC(C)C(=O)N(Cc1ccc(C)o1)C1CCS(=O)(=O)C1` (stereo not drawn), the RP-LC retention time is reported as 847 s.
With `O=C(CN1CCN(Cc2ccc(F)cc2)C(=O)C1=O)N1CCN(Cc2ccccc2)CC1` the RP-LC retention time was 603 s.
Work on `CCN(CC)C(=O)CN1C(=O)COc2ccc(C(=O)N3CCCCC3)cc21` yielded an RP-LC retention time of 695 s.
`CCC(=O)N1CCc2cc(N3CC(C(=O)N4CCC(C)CC4)CC3=O)ccc21` (stereo not drawn) gave an RP-LC retention time of 726 s.
For `COc1ccc(-c2noc(Cc3nc(-c4ccc(Br)cc4)cs3)n2)cc1OC`, the RP-LC retention time was 1200 s.
With `CNC(=O)c1cc(=O)n(CC(=O)Nc2ccc3c(c2)OCO3)c2ccccc12` the RP-LC retention time was 658 s.
For `CCOC(=O)c1nn(-c2ccccc2)cc1O`, the RP-LC retention time was 830 s.
In the case of `CCOc1ccc(CNC(=O)c2c(C)oc3c2C2=NCCN2C=N3)cc1`, the RP-LC retention time is reported as 668 s.
In the case of `Cc1ccc(N2CC(c3noc(-c4cccn4C)n3)CC2=O)cc1` (stereo not drawn), the RP-LC retention time is reported as 611 s.
Work on `COc1ccc(-c2nc(Cn3ccn4nc(-c5ccccc5OC)cc4c3=O)c(C)o2)cc1` yielded an RP-LC retention time of 1100 s.
`CCOC(=O)C1CCC(CNC(=O)N2CCCn3nc(-c4cccnc4)cc3C2)CC1` (stereo not drawn) gave an RP-LC retention time of 629 s.
`COc1cc(OC)cc(C(=O)NC2CCN(c3cc(-c4ccccc4)[nH]n3)C2)c1` (stereo not drawn) showed an RP-LC retention time of 710 s.
With `Cc1ccccc1Nc1c(-c2ccc(Cl)cc2)nc2cnccn12` the RP-LC retention time was 1030 s.
In the case of `Cc1ccc(CNC(=O)Cc2nnc(-c3ccc4ncccc4c3)o2)cc1`, the RP-LC retention time is reported as 832 s.
With `COc1ccc(-n2c(=O)c3sccc3n(Cc3nc(-c4ccc(F)cc4)no3)c2=O)cc1` the RP-LC retention time was 964 s.
Work on `CC(C)C(=O)NCC(c1ccccc1Cl)c1c[nH]c2ccccc12` (stereo not drawn) yielded an RP-LC retention time of 929 s.
Work on `CC(C)c1ccc2c(c1)-c1ccccc1S(=O)(=O)N2CC(=O)N1CC(=O)Nc2ccccc21` yielded an RP-LC retention time of 927 s.
`Cc1noc(-c2ccc(OC3CN(C(=O)Cc4cccs4)C3)cc2)n1` showed an RP-LC retention time of 857 s.
Molecule `O=C(NCC(c1cccs1)S(=O)(=O)c1ccc(F)cc1)c1nc2ccccc2s1` (stereo not drawn) has an RP-LC retention time of 948 s.
In the case of `COC(=O)c1cc(OCC(=O)Nc2ccc3c(c2)OCO3)c2cc(C)ccc2n1`, the RP-LC retention time is reported as 821 s.
Molecule `COc1ccc(OC)c(C2CCN(C(=O)c3nc(-c4oc5c(C)cccc5c4C)no3)C2)c1` (stereo not drawn) has an RP-LC retention time of 1310 s.
Molecule `O=S(=O)(Nc1ccc(N2CCOCC2)cc1)C1CC1` has an RP-LC retention time of 623 s.
`COC(=O)c1cccc(N2C=C(C(=O)N3CCCC3)S(=O)(=O)c3ccc(Cl)cc32)c1` showed an RP-LC retention time of 831 s.
With `COc1ccccc1-c1noc(C2CCCN2C(=O)Nc2cccc(Br)c2)n1` (stereo not drawn) the RP-LC retention time was 944 s.
Molecule `CCOC(=O)c1cc(C(=O)OCC)n(CC(=O)c2ccccc2)n1` has an RP-LC retention time of 973 s.
In the case of `O=C(C1CC(=O)N(c2n[nH]c3cccc(F)c23)C1)N1CCN(c2cccc(Cl)c2)CC1` (stereo not drawn), the RP-LC retention time is reported as 837 s.
`O=C(CN1C(=O)C(C(=O)N2CCCCCC2)Sc2ccccc21)N1CCN(c2ccccc2)CC1` (stereo not drawn) showed an RP-LC retention time of 663 s.
With `O=C(NCCCN1CCCC1)C1CCN(c2cnc(N3CCCC3)nc2)CC1` the RP-LC retention time was 542 s.
Work on `O=C(Nc1nccs1)c1cccc(NS(=O)(=O)c2ccc(F)cc2)c1` yielded an RP-LC retention time of 751 s.
With `Cn1nnc(-c2ccc(-c3ccc(N4C[C@@H](CO)OC4=O)cc3F)cn2)n1` the RP-LC retention time was 735 s.
In the case of `Cc1ccc(-c2ccc(N3CCN(c4ccccn4)CC3)nn2)cc1S(=O)(=O)N1CCCC1`, the RP-LC retention time is reported as 656 s.
With `COc1ccccc1CNC(=O)CN1CCN(Cc2ccc(F)cc2)C(=O)C1=O` the RP-LC retention time was 732 s.
Work on `CCS(=O)(=O)c1nc2ccc(NS(C)(=O)=O)cc2s1` yielded an RP-LC retention time of 699 s.
`O=C(Cn1ccc2sccc2c1=O)Nc1cccc(Cl)c1` gave an RP-LC retention time of 800 s.
`O=C1C(OC2CCN(S(=O)(=O)c3ccc(C(F)(F)F)cc3)CC2)CCN1CC1CC1` (stereo not drawn) showed an RP-LC retention time of 925 s.
In the case of `Cc1ccc(-c2nnc(Cc3nc(-c4cccs4)no3)o2)cc1F`, the RP-LC retention time is reported as 1010 s.
Work on `O=C(C1CCN(c2nc3ccc(-c4ccccc4)nc3s2)CC1)N1CCOCC1` yielded an RP-LC retention time of 810 s.
Molecule `Cc1cccc(NC(=O)C2CCCN(S(=O)(=O)c3c[nH]c(C(=O)N4CCCC4)c3)C2)c1` (stereo not drawn) has an RP-LC retention time of 589 s.
In the case of `COc1ccc(-c2csc3c(=O)n(Cc4cccc(F)c4)cnc23)cc1`, the RP-LC retention time is reported as 1050 s.
In the case of `COc1cccc(CC(=O)NCC(=O)Nc2nc3ccccc3[nH]2)c1`, the RP-LC retention time is reported as 618 s.
For `Cc1noc(C)c1-c1ccc(S(=O)(=O)NC2CCCC2)cc1`, the RP-LC retention time was 911 s.
For `CCC(C)NC(=O)N1CCc2c(c(-c3nc(C)no3)nn2C)C1` (stereo not drawn), the RP-LC retention time was 673 s.
`COc1cc(NC(=O)N2CCN(c3cc(C)nc(N4CCCC4)n3)CC2)cc(OC)c1` showed an RP-LC retention time of 676 s.
In the case of `O=C(Cc1c(Sc2ccccc2)[nH]c2ccccc12)NCCN1CCOCC1`, the RP-LC retention time is reported as 654 s.
For `Cc1nc(-c2cc(S(=O)(=O)Nc3ccc(Cl)cc3F)c(C)s2)cs1`, the RP-LC retention time was 1030 s.
For `O=C(Cn1nc2c(N3CCCCCC3)nccn2c1=O)Nc1ccc2c(c1)OCCO2`, the RP-LC retention time was 668 s.
For `Cc1cc(N2CCN(c3ccccc3)CC2)n2nc(-c3cccnc3)nc2n1`, the RP-LC retention time was 863 s.
`CCc1noc(C2(NC(=O)c3cccc(Cl)c3)CCCCC2)n1` showed an RP-LC retention time of 1030 s.
With `COc1cc(NC(=O)c2noc3c2CC(C)CC3)cc(OC)c1OC` (stereo not drawn) the RP-LC retention time was 932 s.
For `O=C(Nc1ccc2c(c1)OCO2)N1CCN(Cc2ccccc2)c2ncccc21`, the RP-LC retention time was 732 s.
With `CN1C(=O)Cc2cc(C(=O)N3CCN(c4ccc(Cl)cc4)CC3)ccc21` the RP-LC retention time was 813 s.
With `O=C(C1CCCN(c2nc3cccnc3s2)C1)N1CCN(c2ccccc2)CC1` (stereo not drawn) the RP-LC retention time was 844 s.
In the case of `O=C(Nc1nc(-c2ccc3c(c2)OCCO3)cs1)c1cc(Cl)sc1Cl`, the RP-LC retention time is reported as 1120 s.
